Reference: patent publication US20220218831A1, “DEGRADATION OF AURORA KINASE (AURK) BY CONJUGATION OF AURK INHIBITORS WITH E3 LIGASE LIGAND” (Nemucore Medical Innovations, Inc., priority 2019, published 2022)

Assay: Combination of the free target ligand of Formula II (GSK-1070916) with JQ1 (FIG. 3)
Conditions: GSK-1070916 combined with JQ1; FIG. 3 legend, no model or method printed

CCn1cc(-c2ccnc3[nH]c(-c4cccc(CN(C)C)c4)cc23)c(-c2ccc(NC(=O)N(C)C)cc2)n1 [GSK-1070916]
effect of combination with JQ1: synergistic effect
